The nature of this series: Human plasma protein binding (equilibrium dialysis). Format: in vitro ADME. Conditions: dialysis 18 hours. (In general: In equilibrium dialysis free small molecules cross a membrane that holds back macromolecules.)

Experimental: The automated equilibrium dialysis assay in human plasma uses the RED (Rapid Equilibrium Dialysis) Device and sample handling. The assay generally runs over two to three days including delivery of results. After dialysis for 18 hours, plasma and buffer samples are prepared for analysis by liquid chromatography and mass spectrometry. Samples are generally tested in singlicates and quantified by LC/MSMS by using a 7-point calibration curve in plasma. The compounds are pooled together in plasma pools up to 10 compounds. Three reference compounds are used in each run, Propranolol, Metoprolol and Warfarin. Warfarin is used as a control in each pool and Propranolol and Metoprolol are placed randomly in each run. An in-house Excel macro is used for preparation of files for the robot and the mass spectrometer and is also used for the calculations of fraction unbound (fu %) in plasma.

In the case of `COc1cc(F)c(OCCNCCCF)cc1[C@@H]1c2[nH]c3ccccc3c2C[C@@H](C)N1CC(F)(F)F` [Example 28, 3-fluoro-N-(2-(2-fluoro-4-methoxy-5-((1R,3R)-3-methyl-2-(2,2,2-trifluoroethyl)-2,3,4,9-tetrahydro-1H-pyrido[3,4-b]indol-1-yl)phenoxy)ethyl)propan-1-amine], the “Human plasma protein binding (% free)” value amounted to 1.2 % free.

Regarding `C[C@@H]1Cc2c([nH]c3ccccc23)[C@@H](c2c(F)cnc(OCCNCCCF)c2Cl)N1CC(F)(F)CO` [Example 111, 3-((1R,3R)-1-(3-chloro-5-fluoro-2-(2-((3-fluoropropyl)amino)ethoxy)pyridin-4-yl)-3-methyl-1,3,4,9-tetrahydro-2H-pyrido[3,4-b]indol-2-yl)-2,2-difluoropropan-1-ol], the “Human plasma protein binding (% free)” value worked out at 1.4 % free.

For the compound `COc1ccc(OCCNCCCF)c(F)c1[C@@H]1c2[nH]c3ccc(F)cc3c2C[C@@H](C)N1CC(F)(F)CO` [Example 86, 2,2-difluoro-3-((1R,3R)-6-fluoro-1-(2-fluoro-3-(2-((3-fluoropropyl)amino)ethoxy)-6-methoxyphenyl)-3-methyl-1,3,4,9-tetrahydro-2H-pyrido[3,4-b]indol-2-yl)propan-1-ol], the “Human plasma protein binding (% free)” value came out at 2.6 % free.

In the case of `COc1ncc(OCCNCCCF)cc1[C@@H]1c2[nH]c3ccccc3c2C[C@@H](C)N1CC(F)(F)F` [Example 36, 3-fluoro-N-(2-((6-methoxy-5-((1R,3R)-3-methyl-2-(2,2,2-trifluoroethyl)-2,3,4,9-tetrahydro-1H-pyrido[3,4-b]indol-1-yl)pyridin-3-yl)oxy)ethyl)propan-1-amine], the “Human plasma protein binding (% free)” value was determined as 2 % free.

With `C[C@@H]1Cc2c([nH]c3ccccc23)[C@@H](c2c(Cl)ccc(OCCNCCCF)c2Cl)N1C[C@H](C)C(=O)O` [Example 128, (S)-3-((1R,3R)-1-(2,6-dichloro-3-(2-((3-fluoropropyl)amino)ethoxy)phenyl)-3-methyl-1,3,4,9-tetrahydro-2H-pyrido[3,4-b]indol-2-yl)-2-methylpropanoic acid], the “Human plasma protein binding (% free)” value was found to be 15 % free.

`C[C@@H]1Cc2c([nH]c3ccccc23)[C@@H](c2nccc(NCCNCCCF)c2F)N1CC(F)(F)F` [Example 94, N1-(3-fluoro-2-((1S,3R)-3-methyl-2-(2,2,2-trifluoroethyl)-2,3,4,9-tetrahydro-1H-pyrido[3,4-b]indol-1-yl)pyridin-4-yl)-N2-(3-fluoropropyl)ethane-1,2-diamine]: the “Human plasma protein binding (% free)” value came out at 7 % free.

For `C[C@@H]1Cc2c([nH]c3ccccc23)[C@@H](c2cc(OCCNCCCF)ccc2Cl)N1CC(F)(F)F` [Example 22, N-(2-(4-chloro-3-((1R,3R)-3-methyl-2-(2,2,2-trifluoroethyl)-2,3,4,9-tetrahydro-1H-pyrido[3,4-b]indol-1-yl)phenoxy)ethyl)-3-fluoropropan-1-amine], the “Human plasma protein binding (% free)” value was determined as 0.61 % free.

Take `Cc1c(OCCN(C)CCCF)ccc(F)c1[C@@H]1c2[nH]c3ccccc3c2C[C@@H](C(F)(F)F)N1C[C@H](C)C(=O)O` [Example 149, (S)-3-((1R,3S)-1-(6-fluoro-3-(2-((3-fluoropropyl)(methyl)amino)ethoxy)-2-methylphenyl)-3-(trifluoromethyl)-1,3,4,9-tetrahydro-2H-pyrido[3,4-b]indol-2-yl)-2-methylpropanoic acid]: the “Human plasma protein binding (% free)” value is 5.3 % free.

Take `Cc1c([C@@H]2c3[nH]c4ccccc4c3C[C@@H](C)N2C[C@H](C)C(=O)O)ccnc1OCCNCCCF` [Example 132, (S)-3-((1R,3R)-1-(2-2-((3-(fluoropropyl)amino)ethoxy)-3-methylpyridin-4-yl)-3-methyl-1,3,4,9-tetrahydro-2H-pyrido[3,4-b]indol-2-yl)-2-methylpropanoic acid]: the “Human plasma protein binding (% free)” value was 34 % free.

Turning to `COc1nnc(OCCNCCCF)cc1[C@@H]1c2[nH]c3ccccc3c2C[C@@H](C)N1CC(F)(F)F` [Example 112, 3-fluoro-N-(2-((6-methoxy-5-((1R,3R)-3-methyl-2-(2,2,2-trifluoroethyl)-2,3,4,9-tetrahydro-1H-pyrido[3,4-b]indol-1-yl)pyridazin-3-yl)oxy)ethyl)propan-1-amine], the “Human plasma protein binding (% free)” value is listed as 1.5 % free.

`Cc1c(OCCNCCCF)ccc(F)c1[C@@H]1c2[nH]c3ccccc3c2CC(C)(C)N1C[C@H](C)C(=O)O` [Example 134, (S)-3-((R)-1-(6-fluoro-3-(2-((3-fluoropropyl)amino)ethoxy)-2-methylphenyl)-3,3-dimethyl-1,3,4,9-tetrahydro-2H-pyrido[3,4-b]indol-2-yl)-2-methylpropanoic acid]: the “Human plasma protein binding (% free)” value came to 36 % free.

As for `C[C@@H]1Cc2c([nH]c3ccccc23)[C@@H](c2cncc(OCCNCCCF)c2)N1CC(F)(F)F` [Example 101, 3-fluoro-N-(2-((5-((1R,3R)-3-methyl-2-(2,2,2-trifluoroethyl)-2,3,4,9-tetrahydro-1H-pyrido[3,4-b]indol-1-yl)pyridin-3-yl)oxy)ethyl)propan-1-amine], the “Human plasma protein binding (% free)” value came out at 8.4 % free.

Regarding `CC(CN1[C@H](c2c(Cl)ccc(OCCNCCCF)c2Cl)c2[nH]c3ccc(F)cc3c2C[C@H]1C)C(=O)O` (single isomer, unassigned) [Example 129], the “Human plasma protein binding (% free)” value came to 23 % free.

Consider `COc1ccc(OCCNCCCF)c(F)c1[C@@H]1c2[nH]c3ccccc3c2C[C@@H](C)N1CC1(F)CC1` [Example 83, 3-fluoro-N-(2-(2-fluoro-3-((1R,3R)-2-((1-fluorocyclopropyl)methyl)-3-methyl-2,3,4,9-tetrahydro-1H-pyrido[3,4-b]indol-1-yl)-4-methoxyphenoxy)ethyl)propan-1-amine], for which the “Human plasma protein binding (% free)” value was determined as 2.5 % free.

Take `C[C@@H]1Cc2c([nH]c3ccccc23)[C@@H](c2c(F)ccc(NCCNCCCF)c2F)N1CC(F)(F)F` [Example 88, N1-(2,4-difluoro-3-((1R,3R)-3-methyl-2-(2,2,2-trifluoroethyl)-2,3,4,9-tetrahydro-1H-pyrido[3,4-b]indol-1-yl)phenyl)-N2-(3-fluoropropyl)ethane-1,2-diamine]: the “Human plasma protein binding (% free)” value was 0.58 % free.

Turning to `Cc1ccc(OCCNCCCF)nc1[C@@H]1c2[nH]c3ccccc3c2C[C@@H](C)N1CC(F)(F)F` [Example 105, 3-fluoro-N-(2-((5-methyl-6-((1S,3R)-3-methyl-2-(2,2,2-trifluoroethyl)-2,3,4,9-tetrahydro-1H-pyrido[3,4-b]indol-1-yl)pyridin-2-yl)oxy)ethyl)propan-1-amine], the “Human plasma protein binding (% free)” value came out at 1 % free.

Take `C[C@@H]1Cc2c([nH]c3ccccc23)[C@@H](c2c(Cl)ccc(OCCNCCCF)c2F)N1C[C@H](C)C(=O)O` [Example 54, (S)-3-((1R,3R)-1-(6-chloro-2-fluoro-3-(2-((3-fluoropropyl)amino)ethoxy)phenyl)-3-methyl-1,3,4,9-tetrahydro-2H-pyrido[3,4-b]indol-2-yl)-2-methylpropanoic acid]: the “Human plasma protein binding (% free)” value is given as 18 % free.

As to `COc1ccc(NCCNCCCF)cc1[C@@H]1c2[nH]c3ccccc3c2C[C@@H](C)N1CC(F)(F)F` [Example 40, N1-(3-fluoropropyl)-N2-(4-methoxy-3-((1R,3R)-3-methyl-2-(2,2,2-trifluoroethyl)-2,3,4,9-tetrahydro-1H-pyrido[3,4-b]indol-1-yl)phenyl)ethane-1,2-diamine], the “Human plasma protein binding (% free)” value came to 0.89 % free.

For `COc1ccc(OCCNCCCF)c(F)c1[C@@H]1c2[nH]c3ccccc3c2C[C@@H](C)N1CC(F)F` [Example 82, N-(2-(3-((1R,3R)-2-(2,2-difluoroethyl)-3-methyl-2,3,4,9-tetrahydro-1H-pyrido[3,4-b]indol-1-yl)-2-fluoro-4-methoxyphenoxy)ethyl)-3-fluoropropan-1-amine], the “Human plasma protein binding (% free)” value turned out to be 1.9 % free.

Take `Cc1c([C@@H]2c3[nH]c4ccccc4c3C[C@@H](C)N2CC(F)(F)F)ccnc1OCCNCCCF` [Example 106, 3-fluoro-N-(2-((3-methyl-4-((1R,3R)-3-methyl-2-(2,2,2-trifluoroethyl)-2,3,4,9-tetrahydro-1H-pyrido[3,4-b]indol-1-yl)pyridin-2-yl)oxy)ethyl)propan-1-amine]: the “Human plasma protein binding (% free)” value turned out to be 0.34 % free.

`C[C@@H]1Cc2c([nH]c3ccc(F)cc23)[C@@H](c2c(F)ccc(NCCNCCCF)c2F)N1CC(F)(F)CO` [Example 89, 3-((1R,3R)-1-(2,6-difluoro-3-((2-((3-fluoropropyl)amino)ethyl)amino)phenyl)-6-fluoro-3-methyl-1,3,4,9-tetrahydro-2H-pyrido[3,4-b]indol-2-yl)-2,2-difluoropropan-1-ol]: the “Human plasma protein binding (% free)” value is less than 3.4 % free.

Take `COc1ccc(NCCNCCCF)c(F)c1[C@@H]1c2[nH]c3ccccc3c2C[C@@H](C)N1CC(F)(F)F` [Example 90, N1-(2-fluoro-4-methoxy-3-((1R,3R)-3-methyl-2-(2,2,2-trifluoroethyl)-2,3,4,9-tetrahydro-1H-pyrido[3,4-b]indol-1-yl)phenyl)-N2-(3-fluoropropyl)ethane-1,2-diamine]: the “Human plasma protein binding (% free)” value was determined as 1.1 % free.

On to `COc1ccc(NCCNCCCF)nc1[C@@H]1c2[nH]c3ccccc3c2C[C@@H](C)N1CC(F)(F)F` [Example 43, N1-(3-fluoropropyl)-N2-(5-methoxy-6-((1S,3R)-3-methyl-2-(2,2,2-trifluoroethyl)-2,3,4,9-tetrahydro-1H-pyrido[3,4-b]indol-1-yl)pyridin-2-yl)ethane-1,2-diamine], for which the “Human plasma protein binding (% free)” value was 2.8 % free.

`C[C@@H]1Cc2c([nH]c3c(F)cccc23)[C@@H](c2c(F)ccc(OCCNCCCF)c2F)N1CC(F)(F)CO` [Example 60, 3-((1R,3R)-1-(2,6-difluoro-3-(2-((3-fluoropropyl)amino)ethoxy)phenyl)-8-fluoro-3-methyl-1,3,4,9-tetrahydro-2H-pyrido[3,4-b]indol-2-yl)-2,2-difluoropropan-1-ol]: the “Human plasma protein binding (% free)” value turned out to be 1.9 % free.

For the compound `C[C@@H]1Cc2c([nH]c3ccccc23)[C@@H](c2cc(OCCNCCCF)ccc2C#N)N1CC(F)(F)F` [Example 23, 4-(2-((3-fluoropropyl)amino)ethoxy)-2-((1R,3R)-3-methyl-2-(2,2,2-trifluoroethyl)-2,3,4,9-tetrahydro-1H-pyrido[3,4-b]indol-1-yl)benzonitrile], the “Human plasma protein binding (% free)” value worked out at 3.7 % free.

These data come from US10590132B2, “Selective estrogen receptor down-regulators” (AstraZeneca AB, priority 2017, dated 2020).
